Results: patent US20250041245A1, “ENDOXIFEN FOR TREATMENT OF CANCERS” (Atossa Therapeutics, Inc., priority 2021, published 2025)
Where “and” joins values, the source holds several entries; their conditions need not be identical. Equal entries are not always repeated. Entries after “also recorded” stand apart in the source; their conditions may differ.

What was measured:
Format in all cases: cell-based, human
[1] = tested on: patient-derived tumor organoids (PDTOs), pancreatic ductal adenocarcinoma; test: Endoxifen screen in PDTOs: pancreatic ductal adenocarcinoma; design: key to Personalization Category: Personalization categories range from High, Good, Moderate, Low, to None; Personalization categories range from High, Good, Moderate, Low, to None; Personalization categories range from High, Good, Moderate, Low, to None; Personalization categories range from High, Good, Moderate, Low, to None; Personalization categories range from High, Good, Moderate, Low, to None; key to Sensitivity Category: Sensitivity categories range from High, Good, Moderate, Low, to None; Sensitivity categories range from High, Good, Moderate, Low, to None; Sensitivity categories range from High, Good, Moderate, Low, to None; Sensitivity categories range from High, Good, Moderate, Low, to None; Sensitivity categories range from High, Good, Moderate, Low, to None; AUC: unit not given beside the values; details: each line one patient sample; for IC50: four-parameter logistic fit
Procedure: (§1) This example describes screening endoxifen in patient-derived tumor organoids. Endoxifen was tested as a single agent on tumor organoids derived from patients diagnosed with various cancer types using a personalized cancer treatment screening assay (PARIS© Test, SEngine Precision Medicine). The screen utilized patient-derived tumor organoids (PDTOs) along with high-throughput drug screening and machine learning-guided data analysis to quantify the efficacy of endoxifen against samples derived from individual patients diagnosed with various cancer types. PDTOs are self-organizing, three-dimensional organoid structures that recapitulate structural, functional, and genomic aspects of in vivo organs. The PDTOs were grown in culture from patient tumor biopsy samples.
(§2) Fresh patient biopsy samples received following surgery were cleaned and purified. Immune cells (e.g., lymphocytes, blood cells), cancer-associated fibroblasts, and other non-tumor cells were removed to establish pure PDTOs for endoxifen testing. The tumor organoids were grown and expanded by supplying organ- and patient-specific growth factors and nutrients. The PDTOs were treated with increasing concentrations of endoxifen ranging from about 30 nM to about 10 μM, and the drug response was measured using a luminescence readout. A lower luminescence was indicative of a stronger drug response.
(§3) The results were analyzed using a “SEngine Precision Medicine” (SPM) scoring system to assess the sensitivity and personalization of each tumor organoid to endoxifen. The SPM score correlates with clinical outcomes, such that a higher SPM score for a specific PDTO-drug combination predicts a more favorable clinical outcome following treatment of the corresponding patient with the tested drug.
(§4) This example describes testing endoxifen efficacy against 17 distinct cancer types in patient-derived tumor organoids (PDTOs). Screening of PDTOs was performed as described in EXAMPLE 1. For each PDTO sample, the drug response was measured using a luminescent readout over a range of endoxifen concentrations. The drug response was evaluated based on the area under the fitted dose response curve (AUC) and the SPM scoring system. AUC values were normalized for each PDTO. Briefly, data points at each drug concentration were first normalized to a negative control, then a dose response drug curve was approximated using a four-parameter logistic model fitted to the normalized data points. The area under the curve was calculated from the normalized curve. Normalization allowed for comparison of AUC values between patient samples. The SPM scores were based on machine learning models that incorporate values for how well the drug kill patient cells (sensitivity metric), the relative drug responses of a patient to all other patients in a sample database (personalization metric), and knowledge of clinical outcomes for patients that had been evaluated with the personalized cancer screening assay (PARIS® Test, SEngine Precision Medicine).
The SPM scoring system evaluated whether a PDTO was unresponsive or responsive to endoxifen and the degree of drug response for PDTOs that were responsive to endoxifen. The SPM scoring system generated metrics an SPM score, predictive of clinical outcome, overall drug response (response category), drug sensitivity (sensitivity category), and drug personalization (personalization category). SPM scores ranged from 1-15, corresponding to the following drug response categories: no response (SPM 1-8), low response (SPM 9), moderate response (SPM 10-11), good response (SPM 12-13), and exceptional response (SPM 14-15). […] Moderate to good drug responses (SPM 10-13) may indicate that a drug has clinical relevance, possibly in combination with other drugs. The sensitivity category was determined from the sensitivity metric and is a measure of overall cell death of a patient's cells in response to endoxifen at six concentrations. […]

[2] = tested on: patient-derived tumor organoids (PDTOs), primary peritoneal carcinoma; test: Endoxifen screen in PDTOs: primary peritoneal carcinoma; design: key to Personalization Category: Personalization categories range from High, Good, Moderate, Low, to None; Personalization categories range from High, Good, Moderate, Low, to None; Personalization categories range from High, Good, Moderate, Low, to None; Personalization categories range from High, Good, Moderate, Low, to None; Personalization categories range from High, Good, Moderate, Low, to None; key to Sensitivity Category: Sensitivity categories range from High, Good, Moderate, Low, to None; Sensitivity categories range from High, Good, Moderate, Low, to None; Sensitivity categories range from High, Good, Moderate, Low, to None; Sensitivity categories range from High, Good, Moderate, Low, to None; Sensitivity categories range from High, Good, Moderate, Low, to None; AUC: unit not given beside the values
Procedure: as §1, §2, §3, §4
The SPM scoring system evaluated whether a PDTO was unresponsive or responsive to endoxifen and the degree of drug response for PDTOs that were responsive to endoxifen. […] The sensitivity category was determined from the sensitivity metric and is a measure of overall cell death of a patient's cells in response to endoxifen at six concentrations. […]

[3] = tested on: patient-derived tumor organoids (PDTOs), sarcoma; test: Endoxifen screen in PDTOs: sarcoma; design: key to Personalization Category: Personalization categories range from High, Good, Moderate, Low, to None; Personalization categories range from High, Good, Moderate, Low, to None; Personalization categories range from High, Good, Moderate, Low, to None; Personalization categories range from High, Good, Moderate, Low, to None; Personalization categories range from High, Good, Moderate, Low, to None; AUC: unit not given beside the values
Procedure: as §1
Fresh patient biopsy samples received following surgery were cleaned and purified. Immune cells (e.g., lymphocytes, blood cells), cancer-associated fibroblasts, and other non-tumor cells were removed to establish pure PDTOs for endoxifen testing. […] The PDTOs were treated with increasing concentrations of endoxifen ranging from about 30 nM to about 10 μM, and the drug response was measured using a luminescence readout. A lower luminescence was indicative of a stronger drug response.
The results were analyzed using a “SEngine Precision Medicine” (SPM) scoring system to assess the sensitivity and personalization of each tumor organoid to endoxifen. […]
This example describes testing endoxifen efficacy against 17 distinct cancer types in patient-derived tumor organoids (PDTOs). […] For each PDTO sample, the drug response was measured using a luminescent readout over a range of endoxifen concentrations. The drug response was evaluated based on the area under the fitted dose response curve (AUC) and the SPM scoring system. […] The area under the curve was calculated from the normalized curve. […]
The SPM scoring system evaluated whether a PDTO was unresponsive or responsive to endoxifen and the degree of drug response for PDTOs that were responsive to endoxifen. […]

SMILES: CC/C(=C(\c1ccc(O)cc1)c1ccc(OCCNC)cc1)c1ccccc1 [Endoxifen, 4-hydroxy-N-desmethyltamoxifen]
- IC50 ([1]; Homo sapiens): 4.47 µM
- Personalization Category [1]: Good and Low and None
- Response Category [1]: Moderate (moderate response (SPM 10-11)); also recorded: Low (low response (SPM 9)); also recorded: None (no response (SPM 1-8))
- Sensitivity Category [1]: Low and None
- IC50 [1]: 5.83 µM
- AUC ([1]; normalized area under fitted dose response curve): 0.8283 and 0.8839 and 1.1358
- SPM Score ([1]; score range 1-15): 11 and 9 and 1
- IC50 ([2]; Homo sapiens, patient 72, four-parameter logistic fit): 9.37 µM
- Personalization Category ([2]; patient 72): None
- Sensitivity Category ([2]; patient 72): None
- AUC ([2]; patient 72, normalized area under fitted dose response curve): 0.9623
- SPM Score ([2]; patient 72, score range 1-15): 1
- Personalization Category ([3]; patient 21): None
- AUC ([3]; patient 21, normalized area under fitted dose response curve): 0.9995
- SPM Score ([3]; patient 21, score range 1-15): 1
